Assay results reported in patent US20120225093A1, “Abrogating HIV-1 Infection via Drug-Induced Reactivation of Apoptosis” (UNIVERSITY OF MEDICINE AND DENTISTRY OF NEW JERSEY, priority 2010, published 2012).

Columns and labels:
[1] = system: CMV immediate early promoter; experiment: CMV promoter-driven luciferase (pCMV-Ren, pCMV-FF) in 293T cells; type: cell-based, cytomegalovirus; conditions: for CMV-driven Renilla luciferase expression: pCMV-Ren
Experimental: Plasmids were introduced into 2×10^5 293T cells by transfection using Lipofectamine 2000 (Invitrogen) according to the manufacturer's instructions. Compounds (such as CPX or DEF) were added simultaneously. Cells were harvested at 12 hr post-transfection, washed with PBS, lysed in 0.15 ml of 1× passive lysis buffer (Promega), and assayed for luciferase activity using the Promega dual luciferase reporter system according to the manufacturer's instructions. Jurkat cells (1×10^6 cells) were transfected using FuGENE 6 (Roche) according to the manufacturer's instructions and assayed in a similar fashion after pelleting.
293T cells were selected as a model system to explore the relationship between the drugs, eIF5A and HIV gene expression. These cells efficiently transcribe HIV-1 genes from molecular clones as well as subviral constructs, allowing for early detection of changes in HIV gene expression. To establish the system, assays were carried out to examine the effect of CPX and DEF on the expression of firefly luciferase (FF) from the HIV-1 molecular clone, pNL4-3-LucE-, engineered to carry the FF gene in place of the viral nef gene. The molecular clone was transfected into 293T cells together with the pCMV-Ren vector that expresses Renilla luciferase (Ren) from the cytomegalovirus (CMV) immediate early promoter as a control for transfection efficiency and non-specific effects of the compounds. Dual luciferase assays were conducted at 12 hr post-transfection and results are expressed as relative luciferase activity (FF:Ren). […] Assays therefore were carried out to characterize the action of CPX and DEF on eIF5A and HIV gene expression in 293T cells during the first 12 to 24 hr of drug treatment.

293T cells = experiment: Apoptosis and viability of untransfected 293T cells (annexin V / 7AAD); type: cell-based, human; conditions: within 24 hr at concentrations used
Experimental: The cells were grown in DME medium (Sigma) and Jurkat cells in RPMI medium (Sigma), both supplemented with penicillin, streptomycin and 8% FBS. Quantitation of apoptosis and viability was performed with a BD FACSCalibur™ system using Annexin V-PE Apoptosis Detection Kit I (BD Biosciences, San Jose Calif.).

HIV p24 = experiment: p24 expression from pNL4-3-LucE- molecular clone in 293T cells; type: cell-based, HIV-1; conditions: 293T cell extract; 12 hr post-transfection
Experimental: FIGS. 3A-D are a set of diagrams and photographs showing drug effects on luciferase expression from an HIV-1 molecular clone. A. Comparison of drug effects on luciferase expression from the pNL4-3-LucE- molecular clone in 293T cells. The molecular clone pNL4-3-LucE- and pCMV-Ren were transfected into 293T cells. Drugs were added where indicated at the following concentrations: P2 (30 μM), CPX (30 μM), DEF (250 μM), or DFOX (15 μM). Dual luciferase assays were conducted at 12 hr post-transfection. Firefly (FF) luciferase expression was normalized to Renilla luciferase (Ren) from pCMV-Ren (mean of 2 experiments in duplicate, ±SD). B. Expression in Jurkat cells was assayed essentially as in panel A. C. Firefly and Renilla luciferase RNA expression was analyzed in 293T cells treated as in panel A by RPA using 32P-[UTP] labeled antisense RNA probes corresponding to the C-termini of the FF and Ren luciferase mRNAs. D. Comparison of drug effects on p24 expression from the pNL4-3-LucE- molecular clone in 293T cells. Drugs were added where indicated to the same concentrations as in A. p24 levels were determined in cell extract at 12 hr post-transfection.
p24 core antigen in the supernatant was quantified by ELISA (Retrotek HIV-1 p24™; ZeptoMetrix Corp.; Buffalo, N.Y.). HIV-1 RNA copy number in the supernatant was determined with a PCR-based and FDA-approved assay (Amplicor HIV-1 Monitor™; Roche Diagnostics Corp.; Indianapolis, Ind.). IFN-γ and IL-10 in the supernatant were determined by cytometric bead array (Human Th1/Th2 Cytokine Kit II™; BD Biosciences Pharmingen, San Jose, Calif.).

uninfected H9 cells = experiment: Mitochondrial membrane potential (JC-1) in uninfected H9 cells; type: cell-based; conditions: 30 μM CPX; 200 μM DEF
Experimental: The potential across the mitochondrial membrane of live cells was determined flow-cytometrically with the lipophilic cationic fluorochrome JC-1 (5,5′,6,6′-tetrachloro-1,1′,3,3′-tetraethylbenzimidazolcarbocyanine iodide) immediately after sample harvest (BD™ Mitoscreen Kit, BD Biosciences; San Diego, Calif.). DNA fragmentation was quantified flow-cytometrically, using a TUNEL (terminal deoxynucleotide transferase dUTP nick end-labeling) assay (APO-BRDU™; Phoenix Flow Systems; San Diego, Calif.) and a dual-color assay for annexin V binding and 7-AAD exclusion (Annexin V-PE 7-AAD Apoptosis Detection Kit I™; BD Biosciences Pharmingen, San Jose, Calif.). The apoptotic volume decrease of cells was assessed by the reduction of their diameter (VI-CELL™; Beckman Coulter; Fullerton, Calif.).
Next the effect of the drugs on apoptosis in H9 and H9-HIV cells was examined. Both CPX and DEF increased the collapse of Δψ in a manner that was dose-dependent and accentuated by viral infection (FIGS. 8E and F). […] Thus, exposure to CPX or DEF counteracted the HIV-mediated reduction of Δψ collapse and rendered infected cells more susceptible than uninfected cells to an early step in drug-induced apoptosis.

H9-HIV cells = experiment: 89-kDa PARP fragment by flow cytometry in H9-HIV cells; type: cell-based; conditions: 30 μM CPX, 24 hr
Experimental: Intracellular antigens were determined, as geometric means of fluorescence, by flow cytometric analysis using a BD FACSCalibur™ and its BD FACStation System™ (Becton Dickinson; San Jose, Calif.). Intracellular antigens were stained according to the instrument producer's instructions. Anti-HIV-1 Tat antibody was from Abcam Inc. (Cambridge, Mass.); anti-HIV-1 Vpr from Santa Cruz Biotechnology (Santa Cruz, Calif.); anti-HIV-1 Rev from Advanced Biotechnologies Inc. (Columbia, Md.); anti-HIV-1 p24 (KC57) from Beckman Coulter, Miami, Fla.; monoclonal C92-605 anti-human caspase-3 (active form) from Pharmingen (BD Biosciences, San Diego, Calif.); monoclonal F21-852 anti-human poly (ADP-ribose) polymerase (caspase-cleaved 89-kDa fragment); and monoclonal 6C8 anti-human Bcl-2 from Becton Dickinson (BD Biosciences; San Diego, Calif.).
To determine whether the differential effects of the drugs extend into late apoptosis, PARP fragmentation in H9 and H9-HIV cells was measured. CPX caused an ˜8-fold increase in H9-HIV cells positive for 89-kDa PARP, compared to a ˜2 fold increase in H9 cells (FIG. 9A). By 24 hr, twice as many cells stained positive for 89-kDa PARP in the infected cultures as in uninfected cultures (27% compared to 14%; FIG. 9B). […] It is concluded that the retroviral suppression of initiation and execution of apoptosis is reversed by the drugs and transformed into enhanced susceptibility of HIV-infected cells to apoptosis.

Compound | expression from pCMV-FF (construct I) [1] | CMV-driven Renilla luciferase expression [1] | 293T cell death (293T cells) | inhibition of HIV p24 expression from the molecular clone (HIV p24) | concentrations needed for enhanced Δψ collapse (uninfected H9 cells) | 89-kDa PARP fluorescence intensity, infected versus uninfected (H9-HIV cells) | cells positive for 89-kDa PARP (H9-HIV cells) | increase in cells positive for 89-kDa PARP (H9-HIV cells; relative to untreated)
Cc1c(O)c(=O)ccn1C [DEF, 3-hydroxy-1,2-dimethylpyridin-4(1H)-one] | unaffected | no effect on CMV-driven Renilla luciferase expression | marginal 293T cell death | ~60% | higher concentrations were required |  |  | 
Cc1cc(C2CCCCC2)n(O)c(=O)c1 [CPX, 6-cyclohexyl-1-hydroxy-4-methylpyridin-2[1H]-one] | unaffected | no effect on CMV-driven Renilla luciferase expression | marginal 293T cell death | ~60% | higher concentrations were required | approximately one order of magnitude higher | 27% | ~8 fold
